These results are taken from PubChem BioAssay (NCI).

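Briefly, cells in 96-well plates were exposed to five compound concentrations for 48 h, and endpoints were estimated by linear interpolation. TGI: concentration producing complete growth inhibition.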

Among the test systems are 786-0 renal; ACHN renal; BT-549 breast; HCT-116 colon; HOP-62 NSCLC; KM12 colon; M14 melanoma; MALME-3M melanoma; NCI-H23 lung; OVCAR-5 ovarian; RXF 393 renal; SF-295 CNS; SK-MEL-5 melanoma; SK-OV-3 ovarian; SNB-19 CNS; SNB-75 CNS; UACC-62 melanoma; UO-31 renal; SN12C renal; MDA-N.
Common to all, as to test: NCI-60 cell line screen, 48 h

For the molecule `COc1ccc2c(c1)CC[C@@H]1[C@@H]2CC[C@]2(C)C(=O)/C(=C/c3ccc(N(C)C)cc3)C[C@@H]12`, the TGI in the assay with 786-0 renal is 80.7 µM; with ACHN renal it was greater than 100 µM; in the assay on BT-549 breast, 70.6 µM; with HCT-116 colon, greater than 100 µM; with HOP-62 NSCLC it was 44.8 µM; with KM12 colon, greater than 100 µM. Besides, the TGI in the assay on M14 melanoma is greater than 100 µM; in the assay on MALME-3M melanoma, greater than 100 µM; in the assay with NCI-H23 lung, greater than 100 µM; with OVCAR-5 ovarian it was greater than 100 µM; with RXF 393 renal, 87.2 µM; in the assay with SF-295 CNS, greater than 100 µM. Also, the TGI in the assay with SK-MEL-5 melanoma was greater than 100 µM; with SK-OV-3 ovarian, greater than 100 µM; in the assay with SNB-19 CNS, greater than 100 µM; in the assay with SNB-75 CNS, 52.3 µM; with UACC-62 melanoma, greater than 100 µM; in the assay with UO-31 renal, greater than 100 µM.
For `Cc1c2n(c(=O)[nH]c1=O)C1OC(CO)C(O2)C1N=[N+]=[N-]` (stereo unspecified), the TGI in the assay on 786-0 renal, in the assay with ACHN renal, in the assay with HCT-116 colon, with HOP-62 NSCLC, with KM12 colon and in the assay with NCI-H23 lung was greater than 100 µM each time. Besides, the TGI in the assay on SF-295 CNS, in the assay with SK-MEL-5 melanoma, in the assay on SK-OV-3 ovarian, in the assay with SN12C renal, with SNB-19 CNS and in the assay on SNB-75 CNS was greater than 100 µM each time. For the same molecule, the TGI in the assay with UACC-62 melanoma and in the assay on UO-31 renal was greater than 100 µM throughout.
In the case of `C/C(=C\CO)CC/C=C(\C)CNc1c(F)c(F)c(F)c(F)c1F`, the TGI was greater than 100 µM in the assay on 786-0 renal; greater than 100 µM in the assay with ACHN renal; 22.3 µM with BT-549 breast; greater than 100 µM with HCT-116 colon; 68 µM with HOP-62 NSCLC; 77.5 µM with KM12 colon. Also, the TGI with M14 melanoma is greater than 100 µM; with MALME-3M melanoma, 57.2 µM; with NCI-H23 lung it was greater than 100 µM; in the assay on OVCAR-5 ovarian, greater than 100 µM; with RXF 393 renal, 65.3 µM; in the assay with SF-295 CNS, 52.9 µM. Further, the TGI is 31.9 µM in the assay with SK-MEL-5 melanoma; greater than 100 µM in the assay with SK-OV-3 ovarian; 41.2 µM in the assay with SN12C renal; 75 µM in the assay with SNB-19 CNS; 66.3 µM in the assay on SNB-75 CNS; 37.9 µM in the assay on UACC-62 melanoma. Besides, the TGI with UO-31 renal turned out to be 80.8 µM.
With `CCOC(=O)c1c(SC(=O)c2ccc(C(C)(C)C)cc2)n(-c2ccccc2)c(=S)n(-c2ccccc2)c1=O`, the TGI in the assay on 786-0 renal, with ACHN renal, with HCT-116 colon, in the assay on HOP-62 NSCLC, in the assay with KM12 colon and in the assay on M14 melanoma was greater than 100 µM in each case. Also, the TGI with MALME-3M melanoma, in the assay on MDA-N, in the assay with NCI-H23 lung, in the assay with OVCAR-5 ovarian, in the assay with RXF 393 renal and in the assay with SF-295 CNS was greater than 100 µM each time. Besides, the TGI with SK-OV-3 ovarian, with SN12C renal, in the assay on SNB-19 CNS, with SNB-75 CNS and with UACC-62 melanoma was greater than 100 µM in each case.
Turning to `O=C(O)CCC(NC(=O)c1ccc(OCc2nc3cc(C(F)(F)F)ccc3nc2-c2ccccc2)cc1)C(=O)O` (stereo unspecified), the TGI with 786-0 renal, with ACHN renal, in the assay on HCT-116 colon, with HOP-62 NSCLC, with KM12 colon and in the assay with M14 melanoma was greater than 100 µM in each case. Besides, the TGI with MALME-3M melanoma, in the assay with NCI-H23 lung, in the assay with OVCAR-5 ovarian, in the assay with RXF 393 renal, with SF-295 CNS and in the assay on SK-OV-3 ovarian was greater than 100 µM each time. Besides, the TGI in the assay with SN12C renal, with SNB-19 CNS, with SNB-75 CNS, in the assay on UACC-62 melanoma and in the assay with UO-31 renal was greater than 100 µM in each case.
For `C[n+]1c2ccccc2c(NCC(=O)O)c2ccccc21`, the TGI in the assay on 786-0 renal, in the assay on ACHN renal, in the assay with HCT-116 colon, in the assay on HOP-62 NSCLC, in the assay on KM12 colon and in the assay with M14 melanoma was greater than 100 µM throughout. The TGI in the assay on MALME-3M melanoma, with NCI-H23 lung, with OVCAR-5 ovarian, in the assay on RXF 393 renal, in the assay on SF-295 CNS and in the assay on SK-MEL-5 melanoma was greater than 100 µM throughout. For the same molecule, the TGI with SK-OV-3 ovarian, in the assay with SN12C renal, in the assay with SNB-19 CNS, with SNB-75 CNS, with UACC-62 melanoma and with UO-31 renal was greater than 100 µM in each case.
For the molecule `COc1cc(-c2ccc(Br)[nH]2)[nH]c1C=NCC(C)C`, the TGI in the assay with 786-0 renal is 3.27 µM; in the assay on ACHN renal, 4.19 µM; in the assay with HCT-116 colon it was 2.86 µM; in the assay on HOP-62 NSCLC, 3.39 µM; in the assay with KM12 colon, 3.94 µM; in the assay on M14 melanoma, 4.28 µM. Also, the TGI in the assay with MALME-3M melanoma came to 3.13 µM; in the assay with NCI-H23 lung it was 4.14 µM; in the assay on OVCAR-5 ovarian it was 5.05 µM; with SF-295 CNS, 3.67 µM; in the assay with SK-MEL-5 melanoma, 2.87 µM; in the assay with SK-OV-3 ovarian it was 6.91 µM. Further, the TGI in the assay on SN12C renal is 7.51 µM; with SNB-75 CNS, 9.45 µM; in the assay with UACC-62 melanoma, 7.33 µM; in the assay on UO-31 renal, 4.77 µM.
On to `CC(C)=C1C(=O)C[C@]2(C)C[C@H]3O[C@]3(C)CC[C@@H]3O[C@@]3(C)CC[C@@H]12`, for which the TGI in the assay on 786-0 renal, in the assay with ACHN renal, in the assay with BT-549 breast, with HCT-116 colon, in the assay on HOP-62 NSCLC and with KM12 colon was greater than 50 µM in each case. In addition, the TGI in the assay on M14 melanoma, in the assay on NCI-H23 lung, in the assay with OVCAR-5 ovarian, in the assay on RXF 393 renal, with SF-295 CNS and in the assay with SK-OV-3 ovarian was greater than 50 µM in each case. The TGI in the assay with SN12C renal, with SNB-19 CNS, in the assay on SNB-75 CNS, in the assay with UACC-62 melanoma and in the assay on UO-31 renal was greater than 50 µM in each case.
